Laboratory results published in the supplement of paper PMC10307832.

Columns and labels:
Experiment in all cases: relative viability (nuclei count vs DMSO), 5 days (fraction); higher = more cells survive
[1] = tested on: 201T
In short: (§1)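 After 5 days of treatment, lung cancer cells in 1536-well plates were fixed and stained in a single step (final 0.05% Triton X-100, 1% formaldehyde, 1 ug/ml Hoechst) and their nuclei counted on 4× images. Treatment had been applied by pin tool the day after seeding as one drug alone or as a fixed anchor-drug dose with five library-drug doses (not always all listed) in √10 steps. Relative viability is the nuclei count of treated wells divided by that of vehicle wells, and values are medians of duplicate plates.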

[2] = tested on: COR-L23
In short: as §1

[3] = tested on: EPLC-272H
In short: as §1

[4] = tested on: H3255
In short: as §1

[5] = tested on: HCC-44
In short: as §1

[6] = tested on: LOU-NH91
In short: as §1

[7] = tested on: NCI-H1650
In short: as §1

[8] = tested on: NCI-H1734
In short: as §1

[9] = tested on: NCI-H1793
In short: as §1

[10] = tested on: NCI-H1993
In short: as §1

[11] = tested on: NCI-H2023
In short: as §1

[12] = tested on: NCI-H2085
In short: as §1

[13] = tested on: NCI-H2170
In short: as §1

[14] = tested on: NCI-H2347
In short: as §1

[15] = tested on: NCI-H2405
In short: as §1

[16] = tested on: NCI-H3122
In short: as §1

[17] = tested on: NCI-H441
In short: as §1

[18] = tested on: NCI-H520
In short: as §1

[19] = tested on: NCI-H647
In short: as §1

[20] = tested on: PC-14
In short: as §1

[21] = tested on: RERF-LC-KJ
In short: as §1

[22] = tested on: SW 900
In short: as §1

Structure (SMILES): NC(=O)Nc1cc(-c2cccc(F)c2)sc1C(=O)N[C@H]1CCCNC1 [AZD7762] + CC(=O)c1c(C)c2cnc(Nc3ccc(N4CCNCC4)cn3)nc2n(C2CCCC2)c1=O [Palbociclib] (partner 0.5 µM)
- relative viability ([1]; first compound 0.01 µM): 0.361
- relative viability ([1]; first compound 0.03162 µM): 0.348
- relative viability ([1]; first compound 0.1 µM): 0.361
- relative viability ([1]; first compound 0.3162 µM): 0.386
- relative viability ([1]; first compound 1 µM): 0.402
- relative viability ([2]; first compound 0.01 µM): 0.307
- relative viability ([2]; first compound 0.03162 µM): 0.332
- relative viability ([2]; first compound 0.1 µM): 0.412
- relative viability ([2]; first compound 0.3162 µM): 0.261
- relative viability ([2]; first compound 1 µM): 0.117
- relative viability ([3]; first compound 0.01 µM): 0.325
- relative viability ([3]; first compound 0.03162 µM): 0.297
- relative viability ([3]; first compound 0.1 µM): 0.351
- relative viability ([3]; first compound 0.3162 µM): 0.307
- relative viability ([3]; first compound 1 µM): 0.362
- relative viability ([4]; first compound 0.01 µM): 0.329
- relative viability ([4]; first compound 0.03162 µM): 0.312
- relative viability ([4]; first compound 0.1 µM): 0.362
- relative viability ([4]; first compound 0.3162 µM): 0.366
- relative viability ([4]; first compound 1 µM): 0.35
- relative viability ([5]; first compound 0.01 µM): 1.02
- relative viability ([5]; first compound 0.03162 µM): 0.923
- relative viability ([5]; first compound 0.1 µM): 0.965
- relative viability ([5]; first compound 0.3162 µM): 0.93
- relative viability ([5]; first compound 1 µM): 1.04
- relative viability ([6]; first compound 0.01 µM): 0.528
- relative viability ([6]; first compound 0.03162 µM): 0.525
- relative viability ([6]; first compound 0.1 µM): 0.542
- relative viability ([6]; first compound 0.3162 µM): 0.609
- relative viability ([6]; first compound 1 µM): 0.503
- relative viability ([7]; first compound 0.01 µM): 0.367
- relative viability ([7]; first compound 0.03162 µM): 0.397
- relative viability ([7]; first compound 0.1 µM): 0.344
- relative viability ([7]; first compound 0.3162 µM): 0.314
- relative viability ([7]; first compound 1 µM): 0.176
- relative viability ([8]; first compound 0.01 µM): 0.38
- relative viability ([8]; first compound 0.03162 µM): 0.364
- relative viability ([8]; first compound 0.1 µM): 0.395
- relative viability ([8]; first compound 0.3162 µM): 0.356
- relative viability ([8]; first compound 1 µM): 0.317
- relative viability ([9]; first compound 0.01 µM): 0.34
- relative viability ([9]; first compound 0.03162 µM): 0.343
- relative viability ([9]; first compound 0.1 µM): 0.373
- relative viability ([9]; first compound 0.3162 µM): 0.347
- relative viability ([9]; first compound 1 µM): 0.225
- relative viability ([10]; first compound 0.01 µM): 0.84
- relative viability ([10]; first compound 0.03162 µM): 0.648
- relative viability ([10]; first compound 0.1 µM): 0.709
- relative viability ([10]; first compound 0.3162 µM): 0.589
- relative viability ([10]; first compound 1 µM): 0.652
- relative viability ([11]; first compound 0.01 µM): 0.402
- relative viability ([11]; first compound 0.03162 µM): 0.377
- relative viability ([11]; first compound 0.1 µM): 0.219
- relative viability ([11]; first compound 0.3162 µM): 0.162
- relative viability ([11]; first compound 1 µM): 0.095
- relative viability ([12]; first compound 0.01 µM): 0.478
- relative viability ([12]; first compound 0.03162 µM): 0.458
- relative viability ([12]; first compound 0.1 µM): 0.494
- relative viability ([12]; first compound 0.3162 µM): 0.483
- relative viability ([12]; first compound 1 µM): 0.544
- relative viability ([13]; first compound 0.01 µM): 0.437
- relative viability ([13]; first compound 0.03162 µM): 0.397
- relative viability ([13]; first compound 0.1 µM): 0.425
- relative viability ([13]; first compound 0.3162 µM): 0.424
- relative viability ([13]; first compound 1 µM): 0.415
- relative viability ([14]; first compound 0.01 µM): 0.542
- relative viability ([14]; first compound 0.03162 µM): 0.469
- relative viability ([14]; first compound 0.1 µM): 0.479
- relative viability ([14]; first compound 0.3162 µM): 0.509
- relative viability ([14]; first compound 1 µM): 0.461
- relative viability ([15]; first compound 0.01 µM): 0.516
- relative viability ([15]; first compound 0.03162 µM): 0.538
- relative viability ([15]; first compound 0.1 µM): 0.465
- relative viability ([15]; first compound 0.3162 µM): 0.507
- relative viability ([15]; first compound 1 µM): 0.302
- relative viability ([16]; first compound 0.01 µM): 0.167
- relative viability ([16]; first compound 0.03162 µM): 0.206
- relative viability ([16]; first compound 0.1 µM): 0.191
- relative viability ([16]; first compound 0.3162 µM): 0.199
- relative viability ([16]; first compound 1 µM): 0.191
- relative viability ([17]; first compound 0.01 µM): 0.242
- relative viability ([17]; first compound 0.03162 µM): 0.26
- relative viability ([17]; first compound 0.1 µM): 0.232
- relative viability ([17]; first compound 0.3162 µM): 0.251
- relative viability ([17]; first compound 1 µM): 0.256
- relative viability ([18]; first compound 0.01 µM): 0.244
- relative viability ([18]; first compound 0.03162 µM): 0.255
- relative viability ([18]; first compound 0.1 µM): 0.189
- relative viability ([18]; first compound 0.3162 µM): 0.232
- relative viability ([18]; first compound 1 µM): 0.189
- relative viability ([19]; first compound 0.01 µM): 0.434
- relative viability ([19]; first compound 0.03162 µM): 0.424
- relative viability ([19]; first compound 0.1 µM): 0.359
- relative viability ([19]; first compound 0.3162 µM): 0.163
- relative viability ([19]; first compound 1 µM): 0.125
- relative viability ([20]; first compound 0.01 µM): 0.601
- relative viability ([20]; first compound 0.03162 µM): 0.469
- relative viability ([20]; first compound 0.1 µM): 0.326
- relative viability ([20]; first compound 0.3162 µM): 0.203
- relative viability ([20]; first compound 1 µM): 0.0753
- relative viability ([21]; first compound 0.01 µM): 1.09
- relative viability ([21]; first compound 0.03162 µM): 1.07
- relative viability ([21]; first compound 0.1 µM): 1.06
- relative viability ([21]; first compound 0.3162 µM): 1.01
- relative viability ([21]; first compound 1 µM): 0.965
- relative viability ([22]; first compound 0.01 µM): 0.597
- relative viability ([22]; first compound 0.03162 µM): 0.688
- relative viability ([22]; first compound 0.1 µM): 0.583
- relative viability ([22]; first compound 0.3162 µM): 0.444
- relative viability ([22]; first compound 1 µM): 0.504
